Molecules are shown by their SMILES.

Experiment [1] has as its target HDAC1 (Homo sapiens (Human), UniProt Q13547). The note with it: read-out: HDAC1 IC50.
Experiment [2] addresses HDAC8 (Homo sapiens (Human), UniProt Q9BY41). To be noted: read-out: HDAC8 IC50.

Chain of HDAC8 (Q9BY41 whole entry): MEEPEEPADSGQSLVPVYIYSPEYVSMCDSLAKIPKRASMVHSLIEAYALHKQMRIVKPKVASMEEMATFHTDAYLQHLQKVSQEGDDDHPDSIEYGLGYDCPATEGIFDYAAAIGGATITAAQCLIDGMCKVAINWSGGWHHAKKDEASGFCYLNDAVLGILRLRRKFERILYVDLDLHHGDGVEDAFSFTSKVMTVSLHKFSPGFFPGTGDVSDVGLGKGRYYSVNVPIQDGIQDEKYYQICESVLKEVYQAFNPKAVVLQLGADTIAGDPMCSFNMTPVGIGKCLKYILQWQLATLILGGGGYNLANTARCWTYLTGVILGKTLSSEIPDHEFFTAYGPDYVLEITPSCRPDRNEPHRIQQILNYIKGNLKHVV
Chain of HDAC1 (Q13547 whole entry): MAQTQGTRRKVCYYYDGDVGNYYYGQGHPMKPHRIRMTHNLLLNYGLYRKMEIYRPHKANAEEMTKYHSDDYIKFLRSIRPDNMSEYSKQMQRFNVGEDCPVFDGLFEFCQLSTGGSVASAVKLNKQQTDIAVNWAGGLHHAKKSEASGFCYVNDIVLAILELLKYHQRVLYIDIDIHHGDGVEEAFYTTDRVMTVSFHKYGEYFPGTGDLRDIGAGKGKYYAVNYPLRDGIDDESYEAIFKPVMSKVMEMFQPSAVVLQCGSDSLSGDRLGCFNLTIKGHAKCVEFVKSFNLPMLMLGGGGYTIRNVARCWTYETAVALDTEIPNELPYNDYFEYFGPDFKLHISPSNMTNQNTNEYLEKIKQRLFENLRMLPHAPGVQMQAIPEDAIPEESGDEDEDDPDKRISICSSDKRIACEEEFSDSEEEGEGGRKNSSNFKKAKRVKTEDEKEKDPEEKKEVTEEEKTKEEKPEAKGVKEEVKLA

Consider `O=C1CCC(c2ccccc2)N1c1ccc(-c2noc(C(F)(F)F)n2)cc1` (stereo not shown) [Example 115, 5-phenyl-1-(4-(5-(trifluoromethyl)-1,2,4-oxadiazol-3-yl)phenyl)pyrrolidin-2-one], for which the values for the IC50 in experiment [1] and in experiment [2] were 1000 nM and 920 nM, respectively.
On to `FC(F)(F)c1nc(-c2ccc(CNc3cncnc3)nc2)no1` [Example 369, N-({5-[5-(trifluoromethyl)-1,2,4-oxadiazol-3-yl]pyridin-2-yl}methyl)pyrimidin-5-amine], for which the IC50 turned out to be 930 nM in experiment [1] and 960 nM in experiment [2].
In the case of `O=C1COC[C@@H](c2ccccc2)N1c1ccc(-c2noc(C(F)(F)F)n2)nn1` [Example 165, (R)-5-phenyl-4-(6-(5-(trifluoromethyl)-1,2,4-oxadiazol-3-yl)pyridazin-3-yl)morpholin-3-one], the half-inhibitory concentration (IC50) in experiment [1] was 28000 nM; in experiment [2] it was 21000 nM.
For the molecule `Cc1ccc(NCc2ccc(-c3noc(C(F)(F)F)n3)cn2)cn1` [Example 359, 6-methyl-N-({5-[5-(trifluoromethyl)-1,2,4-oxadiazol-3-yl]pyridin-2-yl}methyl)pyridin-3-amine], the half-inhibitory concentration (IC50) in experiment [1] was 430 nM; in experiment [2] it was 1800 nM.
In the case of `FC(F)(F)c1nc(-c2ccnc(OCc3cnn4c3OCCC4)c2)no1` [Example 209, 3-[({4-[5-(trifluoromethyl)-1,2,4-oxadiazol-3-yl]pyridin-2-yl}oxy)methyl]-6,7-dihydro-5H-pyrazolo[5,1-b][1,3]oxazine], the IC50 stood at 6800 nM in experiment [1] and 4400 nM in experiment [2].
Regarding `O=C(NCc1ccccn1)c1cccc(NCc2ccc(-c3noc(C(F)(F)F)n3)cn2)c1` [Example 441, N-(pyridin-2-ylmethyl)-3-[({5-[5-(trifluoromethyl)-1,2,4-oxadiazol-3-yl]pyridin-2-yl}methyl)amino]benzamide], the 50% inhibitory concentration (IC50) worked out at 490 nM in experiment [1] and 740 nM in experiment [2].
For the molecule `O=C(CC1CCS(=O)(=O)C1)N(Cc1ccc(-c2noc(C(F)(F)F)n2)cn1)c1cccc(F)c1` (racemic) [Example 398, 2-(1,1-dioxidotetrahydrothiophen-3-yl)-N-(3-fluorophenyl)-N-({5-[5-(trifluoromethyl)-1,2,4-oxadiazol-3-yl]pyridin-2-yl}methyl)acetamide], the IC50 in experiment [1] came to 410 nM; in experiment [2], 2300 nM.
Turning to `O=C([C@@H]1CCC(=O)N1c1cc(F)c(-c2noc(C(F)(F)F)n2)cc1F)N1CCCC1` [Example 336, (5S)-1-{2,5-difluoro-4-[5-(trifluoromethyl)-1,2,4-oxadiazol-3-yl]phenyl}-5-(pyrrolidin-1-ylcarbonyl)pyrrolidin-2-one], the results for the half-inhibitory concentration (IC50) in experiment [1] and in experiment [2] were 10000 nM and 26000 nM, respectively.
`Cc1noc(CC(=O)N(Cc2ccc(-c3noc(C(F)(F)F)n3)cn2)c2cccc(F)c2)n1` [Example 396, N-(3-fluorophenyl)-2-(3-methyl-1,2,4-oxadiazol-5-yl)-N-({5-[5-(trifluoromethyl)-1,2,4-oxadiazol-3-yl]pyridin-2-yl}methyl)acetamide]: the half-maximal inhibitory concentration (IC50) in experiment [1] amounted to 380 nM; in experiment [2] it was 1000 nM.
On to `Fc1ccccc1C1COCCN1c1ccc(-c2noc(C(F)(F)F)n2)cn1` (racemic) [Example 135, 3-(2-fluorophenyl)-4-(5-(5-(trifluoromethyl)-1,2,4-oxadiazol-3-yl)pyridin-2-yl)morpholine], for which the IC50 in experiment [1] was determined as 210 nM; in experiment [2], 1300 nM.
For the molecule `Cc1noc([C@@H]2CCC(=O)N2c2ccc(-c3noc(C(F)(F)F)n3)c(F)c2)n1` [Example 333, (5S)-1-{3-fluoro-4-[5-(trifluoromethyl)-1,2,4-oxadiazol-3-yl]phenyl}-5-(3-methyl-1,2,4-oxadiazol-5-yl)pyrrolidin-2-one], the results for the half-maximal inhibitory concentration (IC50) in experiment [1] and in experiment [2] were 3300 nM and 6700 nM, respectively.
Regarding `CCN1CCCC(C(=O)N(Cc2ccc(-c3noc(C(F)(F)F)n3)cn2)c2cccc(F)c2)C1` (racemic) [Example 57, 1-ethyl-N-(3-fluorophenyl)-N-((5-(5-(trifluoromethyl)-1,2,4-oxadiazol-3-yl)pyridin-2-yl)methyl)piperidine-3-carboxamide], the half-maximal inhibitory concentration (IC50) in experiment [1] was found to be 240 nM; in experiment [2], 2000 nM.
Regarding `FC(F)(F)c1nc(-c2ccc(CNC3CCN(c4ncccn4)C3)cc2)no1` (racemic) [Example 354, 1-(pyrimidin-2-yl)-N-({4-[5-(trifluoromethyl)-1,2,4-oxadiazol-3-yl]phenyl}methyl)pyrrolidin-3-amine], the IC50 worked out at 1600 nM in experiment [1] and 680 nM in experiment [2].
With `FC(F)(F)c1nc(-c2ccc(CNc3ncccn3)cc2)no1` [Example 386, N-{4-[5-(trifluoromethyl)-1,2,4-oxadiazol-3-yl]benzyl}pyrimidin-2-amine], the figures for the half-maximal inhibitory concentration (IC50) in experiment [1] and in experiment [2] were 5300 nM and 3900 nM, respectively.
For `O=C1CC[C@@H](c2nc(-c3cccnc3)no2)N1c1ccc(-c2noc(C(F)(F)F)n2)cc1` [Example 113, (S)-5-(3-(pyridin-3-yl)-1,2,4-oxadiazol-5-yl)-1-(4-(5-(trifluoromethyl)-1,2,4-oxadiazol-3-yl)phenyl)pyrrolidin-2-one], the 50% inhibitory concentration (IC50) in experiment [1] was found to be 130 nM; in experiment [2] it was 410 nM.
In the case of `O=c1ccc2ccccc2n1Cc1ncc(-c2noc(C(F)(F)F)n2)cn1` [Example 474, 1-({5-[5-(trifluoromethyl)-1,2,4-oxadiazol-3-yl]pyrimidin-2-yl}methyl)quinolin-2(1H)-one], the IC50 in experiment [1] was determined as 220 nM; in experiment [2], 6000 nM.
For the molecule `O=C(C1COCCO1)N(Cc1ccc(-c2noc(C(F)(F)F)n2)cc1)c1cccc(C(F)(F)F)c1` (racemic) [Example 84, N-(4-(5-(trifluoromethyl)-1,2,4-oxadiazol-3-yl)benzyl)-N-(3-(trifluoromethyl)phenyl)-1,4-dioxane-2-carboxamide], the IC50 in experiment [1] was 950 nM; in experiment [2], 2400 nM.
In the case of `Cc1nc(COc2cc(-c3noc(C(F)(F)F)n3)ccn2)no1` [Example 225, 2-[(5-methyl-1,2,4-oxadiazol-3-yl)methoxy]-4-[5-(trifluoromethyl)-1,2,4-oxadiazol-3-yl]pyridine], the IC50 in experiment [1] worked out at 1500 nM; in experiment [2], 620 nM.
With `O=C1COC[C@H](CNCc2ccc(-c3noc(C(F)(F)F)n3)cn2)N1` [Example 451, (5S)-5-{[({5-[5-(trifluoromethyl)-1,2,4-oxadiazol-3-yl]pyridin-2-yl}methyl)amino]methyl}morpholin-3-one], the figures for the concentration for half-maximal inhibition (IC50) in experiment [1] and in experiment [2] were 2500 nM and 2400 nM, respectively.
On the same counts, the results for `O=C(N1CCOCC1)N(Cc1ccc(-c2noc(C(F)(F)F)n2)cc1)c1cccc(C(F)(F)F)c1` [Example 32, N-(4-(5-(Trifluoromethyl)-1,2,4-oxadiazol-3-yl)benzyl)-N-(3-(trifluoromethyl)phenyl)morpholine-4-carboxamide] are 440 nM and 2300 nM.
Consider `Cc1nc(C)n(CC(=O)N(Cc2ccc(-c3noc(C(F)(F)F)n3)cc2)c2cccc(C(F)(F)F)c2)n1` [Example 77, 2-(3,5-dimethyl-1H-1,2,4-triazol-1-yl)-N-(4-(5-(trifluoromethyl)-1,2,4-oxadiazol-3-yl)benzyl)-N-(3-(trifluoromethyl)phenyl)acetamide], for which the concentration for half-maximal inhibition (IC50) in experiment [1] came out at 1400 nM; in experiment [2], 3300 nM.
Consider `CC(C(=O)N(Cc1ccc(-c2noc(C(F)(F)F)n2)cn1)c1cccc(F)c1)n1cccn1` (racemic) [Example 389, N-(3-fluorophenyl)-2-(1H-pyrazol-1-yl)-N-({5-[5-(trifluoromethyl)-1,2,4-oxadiazol-3-yl]pyridin-2-yl}methyl)propanamide], for which the IC50 worked out at 300 nM in experiment [1] and 1600 nM in experiment [2].
In the case of `Cn1nccc1CCOc1cc(-c2noc(C(F)(F)F)n2)ccn1` [Example 387, 2-[2-(1-methyl-1H-pyrazol-5-yl)ethoxy]-4-[5-(trifluoromethyl)-1,2,4-oxadiazol-3-yl]pyridine], the concentration for half-maximal inhibition (IC50) in experiment [1] was 3100 nM; in experiment [2], 880 nM.
`CC(C)c1ncc(C(=O)N(Cc2ccc(-c3noc(C(F)(F)F)n3)cn2)c2cccc(F)c2)cn1` [Example 53, N-(3-fluorophenyl)-2-isopropyl-N-((5-(5-(trifluoromethyl)-1,2,4-oxadiazol-3-yl)pyridin-2-yl)methyl)pyrimidine-5-carboxamide]: the values for the concentration for half-maximal inhibition (IC50) in experiment [1] and in experiment [2] were 170 nM and 1800 nM, respectively.
For the molecule `CCOC(=O)N1CCN(c2ccc(-c3noc(C(F)(F)F)n3)cn2)C(c2ccccc2)C1` (racemic) [Example 159, ethyl 3-phenyl-4-(5-(5-(trifluoromethyl)-1,2,4-oxadiazol-3-yl)pyridin-2-yl)piperazine-1-carboxylate], the 50% inhibitory concentration (IC50) in experiment [2] is 4000 nM.
In the case of `O=C(c1cccc(NCc2ccc(-c3noc(C(F)(F)F)n3)cn2)c1)N1CCCC1` [Example 439, 3-(pyrrolidin-1-ylcarbonyl)-N-({5-[5-(trifluoromethyl)-1,2,4-oxadiazol-3-yl]pyridin-2-yl}methyl)aniline], the half-maximal inhibitory concentration (IC50) in experiment [2] is 1400 nM.
With `FC(F)(F)c1nc(-c2ccc(N3CCCC3c3ccncc3)nc2)no1` (racemic) [Example 150, 3-(6-(2-(pyridin-4-yl)pyrrolidin-1-yl)pyridin-3-yl)-5-(trifluoromethyl)-1,2,4-oxadiazole], the concentration for half-maximal inhibition (IC50) in experiment [2] amounted to 1800 nM.
As for `FC(F)(F)c1cccc(C2COCCN2c2ccc(-c3noc(C(F)(F)F)n3)cn2)c1` (racemic) [Example 146, 4-(5-(5-(trifluoromethyl)-1,2,4-oxadiazol-3-yl)pyridin-2-yl)-3-(3-(trifluoromethyl)phenyl)morpholine], the IC50 in experiment [2] was 20000 nM.
With `FC(F)(F)c1nc(-c2ccc(CNc3cc[nH]n3)nc2)no1` [Example 432, N-({5-[5-(trifluoromethyl)-1,2,4-oxadiazol-3-yl]pyridin-2-yl}methyl)-1H-pyrazol-3-amine], the half-maximal inhibitory concentration (IC50) in experiment [2] was 1300 nM.
On the same count and under the same terms, the same measure for `O=C1CCc2ccc(F)cc2N1Cc1ccc(-c2noc(C(F)(F)F)n2)cc1` [Example 318, 7-fluoro-1-{4-[5-(trifluoromethyl)-1,2,4-oxadiazol-3-yl]benzyl}-3,4-dihydroquinolin-2(1H)-one]: 1800 nM; for `O=C(NCc1ccccc1)c1ccccc1NCc1ccc(-c2noc(C(F)(F)F)n2)cn1` [Example 448, N-benzyl-2-[({5-[5-(trifluoromethyl)-1,2,4-oxadiazol-3-yl]pyridin-2-yl}methyl)amino]benzamide]: 530 nM.

For orientation: IC50 means the concentration that inhibits the measured activity by half.
